These results are taken from PubChem BioAssay AID1996.

Each structure is given as a SMILES string. Converted amounts (≈) assume the structure as drawn.

For the data set the following is noted: buffer; pH 7.4; 200.0 µM.
Usually solubility (kinetic) stands for solubility judged after dilution from a stock solution rather than from solid. Take `O=[N+]([O-])c1c(NCCO)cc(N2CCCCC2)c2nonc12`: the kinetic solubility is 38.6 µg/mL (≈ 126 µM). With `Cn1cc(Br)c(-c2cccc(N3C(=O)CCCC3=O)c2)n1`, the kinetic solubility was above 52.2 µg/mL. Turning to `CC(C)Oc1ccccc1C1(c2ccccc2)NC(=O)NC1=O` (stereo not drawn), the kinetic solubility is above 46.6 µg/mL. Compound `NS(=O)(=O)c1ccc(CCNC(=S)NC(=O)c2ccccc2Br)cc1` returned a solubility (kinetic) of 3.3 µg/mL (≈ 7.46 µM). Next, `O=C(NC(=S)Nc1ccccn1)c1cccc([N+](=O)[O-])c1`: 6.2 µg/mL (≈ 20.5 µM). Turning to `O=C(O)C1C2C=CC(O2)C1C(=O)NCCc1cccc(Cl)c1` (stereo not drawn), the solubility (kinetic) was above 48.3 µg/mL. In the case of `Cn1cc(S(=O)(=O)NCc2ccc3c(c2)OCO3)c(C(F)(F)F)n1` it was above 54.5 µg/mL.

`COC(=O)CCNC(=O)c1ccc2[nH]c(C)c(C)c2c1` registered a kinetic solubility above 41.1 µg/mL.

For the compound `CS(=O)(=O)N1CCN=C1SCc1ccc(F)cc1`, the kinetic solubility was above 43.3 µg/mL.

Consider `Cc1ccccc1NC1=NC2(CCCC2)N=C(N)N1`, for which the solubility (kinetic) stood at 28.3 µg/mL (≈ 110 µM). Take `Cc1cccc(N2CCN(C(=O)/C=C/c3cccs3)CC2C)c1` (stereo not drawn): the kinetic solubility amounted to 22.8 µg/mL (≈ 69.8 µM). For `CCn1c(=O)c2ccccc2n(Cc2ccccc2C)c1=O`, the solubility (kinetic) amounted to 3.1 µg/mL (≈ 10.5 µM). Compound `CCOC(=O)Cn1nc(C)c([N+](=O)[O-])c1C` had a solubility (kinetic) above 34.1 µg/mL. `c1cncc(-c2nc(N3CCOCC3)c3c4c(sc3n2)CCC4)c1`: the kinetic solubility amounted to 1.1 µg/mL (≈ 3.25 µM).

With `O=C(Cn1c(=O)cnc2ccccc21)NC1CCC(O)CC1` (stereo not drawn), the kinetic solubility is above 45.2 µg/mL.

In turn, `COc1ccccc1C(C)NCC(=O)Nc1c(F)cccc1F` (stereo not drawn) had a solubility (kinetic) above 48.1 µg/mL.

In turn, `CC(C)c1ccccc1NC(=S)NCCCn1ccnc1` yielded a solubility (kinetic) above 45.4 µg/mL. `Nc1sc2c(c1C(=O)NC1CC1)CCCC2` displayed a solubility (kinetic) of 31 µg/mL (≈ 131 µM). Compound `CC(C)=CC(=O)N1CC[C@@H](N2CCN(c3ccccc3F)CC2)[C@H](O)C1` displayed a kinetic solubility above 54.2 µg/mL. In the case of `COc1cc(/C=N/NC(=O)CNC(=O)c2ccncc2)ccc1O` it was above 49.2 µg/mL. As for `Fc1ccc(C2CC(c3ccco3)=Nc3ccccc3S2)cc1` (stereo not drawn), the solubility (kinetic) is below 0.7 µg/mL. The compound `CCc1c(C(=O)Nc2cc(C(=O)OC)ccc2C)csc1C` gave a solubility (kinetic) of 1 µg/mL (≈ 3.15 µM). In the case of `COc1cccc(NC(=O)c2ccc3c(c2)CCCC3)c1`, the kinetic solubility worked out at 6 µg/mL (≈ 21.3 µM). Turning to `O=c1[nH]c(=O)n(C2CCCO2)cc1F` (stereo not drawn), the solubility (kinetic) came to 29.9 µg/mL (≈ 149 µM). In turn, `Cc1ccc(OCCCn2c(=O)oc3ccccc32)cc1` registered a solubility (kinetic) of 2 µg/mL (≈ 7.06 µM). `Cc1ccccc1NC(=O)C(=O)c1cn(C)c2ccccc12` displayed a kinetic solubility below 0.3 µg/mL.

With `CCOC(=O)C1=C(C)OC(N)=C(C#N)C1c1ccccc1` (stereo not drawn), the kinetic solubility was 37.1 µg/mL (≈ 130 µM).

With `Cc1cc[n+](CC(=O)Nc2ccccc2)cc1.[Br-]`, the solubility (kinetic) is 45.4 µg/mL. For the compound `COC(=O)c1ccc(C(=O)OC)c(NC(=O)/C=C/C(=O)O)c1`, the solubility (kinetic) was above 46.1 µg/mL. `O=C(c1ccco1)N1CCN(S(=O)(=O)c2cccc([N+](=O)[O-])c2)CC1` yielded a solubility (kinetic) above 54.8 µg/mL. `CCOC(=O)c1nc(Nc2ccc(OC)cc2)c2ccccc2n1` gave a solubility (kinetic) above 48.5 µg/mL. As for `COc1ccc(N2C(S)=C(C#N)C(=O)NC23CCCCC3)cc1`, the kinetic solubility was 19.3 µg/mL (≈ 58.6 µM). Next, `CCOc1ccc(C(=O)N2CCN(c3ccccc3)CC2)cc1`: 46.5 µg/mL (≈ 150 µM).

The compound `O=C1C2C3CCC(C3)C2C(=O)N1c1ccc2ccccc2c1` (stereo not drawn) came in with a solubility (kinetic) of 5 µg/mL (≈ 17.2 µM).

In turn, `Cc1cccc(NC(=S)NC(=O)c2ccco2)c1C` returned a solubility (kinetic) of 36.7 µg/mL (≈ 134 µM).

Compound `Cc1noc(C)c1S(=O)(=O)Nc1ccccc1N1CCOCC1` had a solubility (kinetic) above 50.6 µg/mL.

In the case of `CC1CN(C(=S)Nc2ccc(Br)cc2)CC(C)O1` (stereo not drawn), the kinetic solubility was 48.5 µg/mL (≈ 147 µM). The compound `Cc1ccc(S(=O)(=O)N2CCN(C)CC2)cc1C` had a solubility (kinetic) of 31.3 µg/mL (≈ 117 µM). Next, `Cc1[nH]nc(SCC(=O)N2CCOCC2)c1[N+](=O)[O-]`: above 42.9 µg/mL; `Cn1cccc1C(=O)/C(C#N)=C/c1ccc(F)cc1`: 36.3 µg/mL (≈ 143 µM); `CC(=O)Nc1ccc(SCC(=O)Nc2ccccc2N2CCOCC2)cc1`: 3.9 µg/mL (≈ 10.1 µM). `O=C(O)CC(CN1C(=O)c2ccccc2C1=O)c1ccccc1` (stereo not drawn) came in with a solubility (kinetic) above 46.4 µg/mL. For `Cc1c(C(=O)Oc2cccc3cccnc23)cccc1[N+](=O)[O-]`, the kinetic solubility stood at 7.9 µg/mL (≈ 25.6 µM). The compound `Cc1nnc(SCC(=O)Nc2ccc([N+](=O)[O-])cc2)n1C` registered a kinetic solubility above 46.1 µg/mL. Next, `O=C(Nc1cccc(S(=O)(=O)N2CCCC2)c1)c1cncc(Br)c1`: 60.4 µg/mL (≈ 147 µM); `CCOC(=O)N1CCc2c(sc3ncn(Cc4ccc(F)cc4)c(=O)c23)C1`: 20.8 µg/mL (≈ 53.7 µM).

Turning to `O=C(COc1ccccc1Cl)NCCNC(=O)c1cnccn1`, the kinetic solubility stood at 39.6 µg/mL (≈ 118 µM).

For the compound `O=C(NC1CCN(c2ncccn2)CC1)c1cccc(F)c1`, the solubility (kinetic) is 32.8 µg/mL (≈ 109 µM). In turn, `N#C/C(=C\c1ccccc1Cl)C(=O)Nc1ccccn1` returned a kinetic solubility of 37.7 µg/mL (≈ 133 µM).

Compound `O=C(CCCc1cccs1)Nc1ccc2c(c1)OCO2` yielded a kinetic solubility of 39.2 µg/mL (≈ 135 µM). Turning to `Cc1ccccc1-c1nnc(SCCC(=O)N2CCOCC2)o1`, the solubility (kinetic) is above 50 µg/mL. `OCC1(CO)COC(CCc2ccccc2)=N1` yielded a kinetic solubility above 35.3 µg/mL. `Clc1ccc(Cn2ccc3ccccc32)cn1`: the kinetic solubility was 26.4 µg/mL (≈ 109 µM).
